Experimental findings from patent US9775833B2, “Method for the treatment of NF1- or RAS-associated disorders” (The Trustees of Dartmouth College, priority 2015, dated 2017) are described below.

Entries after “also recorded” stand apart in the source; their conditions may differ.

Experiment [1] has as its system lysine 63 and lysine 48 polyubiquitin linked-proteins. The experiment can be described thus: K63/K48 polyubiquitin western blot in U251-MG cells. It counts as cell-based, human. The conditions noted are these: 24 hours, comparable to HCQ (50 uM, 24 h) or MG132 plus bortezomib cocktail.
In experiment [2] the test system is U87-MG cells. Nature of the experiment: Mitochondrial immunofluorescence (Mitotracker Red / TOMM20) in U87-MG cells. It counts as cell-based, human. The note with it: 24 hours, Mitotracker Red and TOMM20. On the procedure: Polarized mitochondria are labeled with Mitotracker Red, while all mitochondria are labeled with an antibody specific to the mitochondrial protein TOMM20.
Immunofluorescence. U87-MG cells were cultured on poly-D-lysine coated coverslips (Neuvitro Corporation) or poly-L-lysine coated coverslips and treated with Compound 1 (Chembridge) for 24 hours. For the last 30 minutes of treatment, cells were labeled with 100 nM Mitotracker Red (Life Technologies). After treatment and labeling, cells were rinsed with PBS. Cells were fixed in 4% methanol-free paraformaldehyde (Electron Microscopy Services) in PBS (Corning) for 10 minutes at room temperature and blocked with immunofluorescence buffer (2% [v/v] goat serum, 0.2% [v/v] Triton X-100 and 0.05% [w/v] sodium azide in PBS) at RT. TOMM20 was labeled using 1:200 rabbit anti-TOM20 (Santa Cruz) at room temperature for one hour, and cells were rinsed 3 times for 5 minutes with PBST. Secondary labeling was performed with 1:600 goat anti-rabbit F(ab′) 2 DyLight 488 at room temperature for 1 hour (Jackson Immunoresearch) diluted in IF buffer. Cells were then rinsed 2 times for five minutes with PBST and then nuclei were labeled with DAPI in PBS for 5 minutes. Coverslips were mounted on glass slides with ProLong Gold (Life Technologies). […]

The test system of experiment [3] is U87-MG cells. Nature of the experiment: MitoSOX Red flow cytometry for mitochondrial superoxide. The conditions noted are these: 24 h of treatment. The experiment is classed as cell-based, human. On the procedure:
Flow Cytometry. To determine mitochondrial superoxide levels, 500,000 U87-MG cells/well were plated to a 6-well plate and allowed to adhere overnight. The medium was then replaced with cell culture media containing DMSO or Y100. Cells were treated for 24 hours. 30 minutes before the end of the incubation, 1 micromolar MitoSOX Red was added. At the end of the incubation, cells were rinsed with PBS and trypsinized, and then rinsed two more times. The cells were transferred to flow cytometry tubes and analyzed using a MacsQuant VYB 8-color flow cytometer. MitoSOX Red fluorescence was detected using the Y1-A (PE) channel. 30,000 events per sample were collected. Histograms were generated using the FlowJo flow cytometry analysis software package.

The next experiment relates to p62/SQSTM-1. The experiment can be described thus: p62/SQSTM-1 level, western blot and immunofluorescence. It counts as cell-based, human. The note with it: U87-MG, 24 h; western blot, immunofluorescent microscopy. How it is done:
U87-MG tumor cells were treated with compound 1 or hydroxychloroquine (an autophagy inhibitor) for 24 h or a cocktail of proteasome inhibitors (bortezomib, BTZ and MG-132) for 2 h. P62 and tubulin levels were determined by western blot.
(§1) U87-MG tumor cells were treated with Y100, hydroxychloroquine (an autophagy inhibitor) or rapamycin (an autophagy inducer) for 24 hours. LC3B-I to LC3-II conversion and tubulin levels were determined by western blot.
Western Blotting. U87-MG cells were plated at a concentration of 500,000 cells per well in a 6-well plate and allowed to adhere overnight. Cells were treated with the noted concentrations and times of controls or compound 1. After treatment, cells were harvested with trypsin, rinsed, and lysed with approximately 75 microliters RIPA buffer with protease and phosphatase inhibitors per 500,000 cells. Protein was quantified with a BCA assay kit (Pierce). 30 micrograms of protein was separated on a 4-15% SDS-PAGE gel (Bio-Rad) by SDS gel electrophoresis. Protein was transferred to a nitrocellulose membrane, blocked with 5% milk in TBST and probed with LC3B (Cell Signaling, 1:1000, overnight), p62/SQSTM-1 (Santa Cruz, 1:1000, 1 h), tubulin (Santa Cruz, 1:10000, 1 h), K63 ubiquitin (Cell Signaling, 1:1000, 1 h), K48 ubiquitin (Cell Signaling, 1:2000, 1 h) in 2% milk in TBST. […]

Experiment [4] has as its system yeast model of NF1 deficiency (IRA2, yeast homolog of human NF1). The experiment can be described thus: Yeast growth assay, yeast model of NF1 deficiency (OD 600 nm). The experiment is classed as cell-based, Saccharomyces cerevisiae. The conditions noted are these: increasing concentrations, 18 hours. How it is done: (§2) IRA2 is a yeast homolog of human NF1. Cells were grown in the presence of increasing concentrations of compound 1 for 18 hours. The absorbance (OD 600 nm) was measured as a surrogate marker of cell growth. The assay has been described previously: see Sanchez et al., Mol. Cancer Ther. 2011 Sep.: 10(9):1740-1750.
(§3) IRA2 is a yeast homolog of human NF1. Cells were grown in the presence of increasing concentrations of Y100B for 18 hours. The absorbance (OD 600 nm) was measured as a surrogate marker of cell growth. The assay has been described previously: see Sanchez et al., Mol. Cancer Ther. 2011 Sep.: 10(9):1740-1750.

A further experiment relates to LC3B-II. The experiment can be described thus: LC3B accumulation, western blot and immunofluorescence. The conditions noted are these: U87-MG, 24 hours; western blot, immunofluorescent microscopy. The experiment is classed as cell-based, human. On the procedure: as §1
(§4) Western Blotting. U87-MG cells were plated at a concentration of 500,000 cells per well in a 6-well plate and allowed to adhere overnight. Cells were treated with the noted concentrations and times of controls or compound 1. After treatment, cells were harvested with trypsin, rinsed, and lysed with approximately 75 microliters RIPA buffer with protease and phosphatase inhibitors per 500,000 cells. Protein was quantified with a BCA assay kit (Pierce). 30 micrograms of protein was separated on a 4-15% SDS-PAGE gel (Bio-Rad) by SDS gel electrophoresis. Protein was transferred to a nitrocellulose membrane, blocked with 5% milk in TBST and probed with LC3B (Cell Signaling, 1:1000, overnight), p62/SQSTM-1 (Santa Cruz, 1:1000, 1 h), tubulin (Santa Cruz, 1:10000, 1 h), K63 ubiquitin (Cell Signaling, 1:1000, 1 h), K48 ubiquitin (Cell Signaling, 1:2000, 1 h) in 2% milk in TBST. Secondary labeling was performed with a one hour incubation in 1:20000 anti-rabbit HRP or 1:10000 anti-mouse HRP (Jackson Immunoresearch) diluted in 2% milk in TBST. Film was then exposed to ECL-coated blots (Pierce) and developed using a standard film processor.

Another experiment concerns control strains. The experiment can be described thus: Yeast growth assay, control strains (OD 600 nm). It counts as cell-based, Saccharomyces cerevisiae. The conditions noted are these: increasing concentrations, 18 hours. How it is done: as §2, §3
Experiment [5] has as its system NF1-deficient tumor cells (U87-MG). The experiment can be described thus: alamarBlue viability/growth assay in U87-MG cells. It counts as cell-based, human. On the procedure:
Cells were incubated with drug for 15 minutes-72 h. At the noted times, the drug was removed, cells were rinsed with PBS, and replaced with normal media. At 69 hours, 5 uL of alamarBlue viability assay reagent was added to each well. At 72 h, the fluorescence was measured (Ex/Em 544/590 nm) as a surrogate indicator of viability. All values were normalized to the fluorescence observed in a vehicle (DMSO) control.
Cells were incubated with drug for 3 or 7 days. 3 hours before the end of the experiment, 5 uL of alamarBlue viability assay reagent was added to each well. At the end of each timepoint, the fluorescence was measured (Ex/Em 544/590 nm) as a surrogate indicator of viability. All values were normalized to the fluorescence observed in a vehicle (DMSO) control.
Viability Assay. Cells are cultured on plastic 96-well plates. Cell viability is estimated using metabolism as a surrogate marker via the ALAMARBLUE viability/proliferation assay (AbD Serotec; Kidlington, UK) according to the protocol of the manufacturer. The modification of the ALAMARBLUE reagent to a fluorescent substrate is measured with a fluorimeter, after which fluorescent intensity is normalized as a percentage of the vehicle control. Assays are done in triplicate.
Dose Response Assays (Mammalian Cells). To perform drug sensitivity assays, U87-MG cells were plated to 96-well plates at a concentration of 5000 cells/well. After overnight incubation, medium was removed and replaced with 100 μL of medium containing 0-20 uM Compound 1 and DMSO (to normalize DMSO concentrations). In the case of the beta-mercaptoethanol and N-acetyl cysteine co-treatment assays, cells were preincubated with these compounds or a vehicle control for 2 h before being replaced with Y100+/− N-acetyl cysteine, beta-mercaptoethanol or vehicle. Cells were incubated for the noted time with a final 3-hour incubation in 5% AlamarBlue (Thermo Scientific). The plate was scanned at an Ex/Em of 544/590 nm, and fluorescence was normalized to vehicle control wells. Dose-response curves and IC50s were calculated with the Prism 6 software package (GraphPad, San Diego, Calif., USA) by performing a 4-parameter logistic regression with outlier exclusion analysis.

The subject of a further experiment is U251-MG cells. The experiment can be described thus: Mitochondrial immunofluorescence (Mitotracker Red / TOMM20) in U251-MG cells. The conditions noted are these: Mitotracker Red and TOMM20. The experiment is classed as cell-based, human.
Experiment [6] deals with lysine 63 and lysine 48 polyubiquitin linked-proteins. The experiment can be described thus: K63/K48 polyubiquitin western blot in U87-MG cells. The conditions noted are these: 24 hours, comparable to HCQ (50 uM, 24 h) or MG132 plus bortezomib cocktail. The experiment is classed as cell-based, human. How it is done: as §4
The mark [7] stands for this setting: ROS scavenger co-treated for 72 hours, alamarBlue.

For `CCOC(=O)c1ccc2c3c(onc13)-c1ccccc1C2=O` [compound 1], the “accumulation of lysine 63 and lysine 48 polyubiquitin linked-proteins” value is “induces the accumulation of lysine 63 and lysine 48 polyubiquitin linked-proteins” in experiment [1]; “induces the accumulation of lysine 63 and lysine 48 polyubiquitin linked-proteins” in experiment [6]. In addition, the “formation of polarized mitochondrial hotspots” value in the experiment with U87-MG cells [2] and in the experiment on U251-MG cells was “induces the formation of polarized mitochondrial hotspots” throughout. Besides, in the experiment on U87-MG cells [3], the “formation and/or accumulation of mitochondrial superoxide (MitoSOX Red)” value is “induces the formation and/or accumulation of mitochondrial superoxide”. In addition, the “autophagy marker p62/SQSTM-1 (P62 accumulation)” value with p62/SQSTM-1 was “modulates the autophagy marker and ubiquitin binding scaffold protein p62/SQSTM-1; also recorded: induces P62 accumulation”. Also, the “growth / cell death of NF1-deficient yeast (absorbance OD 600 nm)” value in [4] is listed as “selectively inhibits growth or induces cell death”. Further, in the experiment with LC3B-II, the “LC3B accumulation (LC3B-I to LC3-II conversion)” value was “not LC3B accumulation”. Besides, the “growth of control yeast strains (absorbance OD 600 nm)” value with control strains is “without affecting the control strains”. In experiment [5] (setting [7]), the “effect on U87-MG cells on co-treatment with N-acetyl cysteine (NAC)” value is recorded as “abrogate the effect of compound 1”. For the same compound, the “effect on U87-MG cells on co-treatment with β-mercaptoethanol” value in [5] (setting [7]) is “abrogate the effect of compound 1”. Also, in [5] (U87-MG, 3-day alamarBlue assay), the “effect on cell viability/growth on pretreatment and co-treatment with buthionine sulfoximine (BSO)” value is “potentiates the effect of compound 1 on cell viability/growth”. Moreover, the “drug exposure time giving an irreversible effect on cell viability/growth” value in experiment [5] (U87-MG, drug removed after 15 minutes-72 h, alamarBlue read at 72 h) was not above 15 min.

For `COC(=O)c1ccc2c3c(onc13)-c1ccccc1C2=O` [compound 2], the “growth / cell death of NF1-deficient yeast (absorbance OD 600 nm)” value in [4] was “selectively inhibits growth or induces cell death”. Besides, the “growth of control yeast strains (absorbance OD 600 nm)” value in the experiment on control strains is “without affecting the control strains”. Moreover, the “viability and/or growth of U87 MG cells (alamarBlue)” value in experiment [5] (incubated with drug for 3 or 7 days) was “reduces viability and/or growth”.

With `CCN(CCO)CCCC(C)Nc1ccnc2cc(Cl)ccc12` (stereo not drawn) [hydroxychloroquine], in the experiment on p62/SQSTM-1, the “autophagy marker p62/SQSTM-1 (P62 accumulation)” value was “induces P62 accumulation”. Moreover, the “LC3B accumulation (LC3B-I to LC3-II conversion)” value with LC3B-II was “induces accumulation of the autophagy marker LC3B-II”.
